In BindingDB's records for doi:10.1016/j.bmcl.2009.09.123 (Genomics Institute of The Novartis Research Foundation, 2009) one finds IC50 data, which are given here for seven compounds.

Bounds are passed on as bounds.

Experiment [1] in a line: Inhibition of Tel-fused LYN expressed in mouse BAF3 cells.
A short description of experiment [2]: Inhibition of Tel-fused LCK expressed in mouse BAF3 cells.
The nature of experiment [3]: Inhibition of Tel-fused KDR expressed in mouse BAF3 cells.
Experiment [4] in a line: Inhibition of Tel-fused SRC expressed in mouse BAF3 cells.

In general, IC50 refers to the point on the concentration scale where inhibition reaches its midpoint. Low values mean inhibition by little substance, high ones a need for much substance. `Cc1cccc(NC(=O)c2ccc(C)c(Nc3nc4ccccc4n3-c3cc(NCCN4CCN(C)CC4)ncn3)c2)c1` [4-methyl-3-(1-(6-(2-(4-methylpiperazin-1-yl)ethylamino)pyrimidin-4-yl)-1H-benzo[d]imidazol-2-ylamino)-N-m-tolylbenzamide]: the IC50 in experiment [1] amounted to 1660 nM; in experiment [2] it was 762 nM; in experiment [3] it was 2090 nM; in experiment [4], 1540 nM.

For the compound `Cc1ccc(NC(=O)c2cccc(C(F)(F)F)c2)cc1Nc1nc2ccccc2n1-c1cc(NCCCC2COCCN2)ncn1` (stereo not drawn) [N-(4-methyl-3-(1-(6-(3-(morpholin-3-yl)propylamino)pyrimidin-4-yl)-1H-benzo[d]imidazol-2-ylamino)phenyl)-3-(trifluoromethyl)benzamide], the IC50 in experiment [1] came out at 67 nM; in experiment [2] it was 40 nM; in experiment [3], 318 nM; in experiment [4], 600 nM.

`Cc1ccc(C(=O)Nc2cccc(C(F)(F)F)c2)cc1Nc1nc2ccccc2n1-c1cc(NCCCN2CCN(C)CC2)ncn1` [4-methyl-3-(1-(6-(3-(4-methylpiperazin-1-yl)propylamino)pyrimidin-4-yl)-1H-benzo[d]imidazol-2-ylamino)-N-(3-(trifluoromethyl)phenyl)benzamide]: the IC50 in experiment [1] turned out to be 84 nM; in experiment [2] it was 23 nM; in experiment [3], 117 nM; in experiment [4] it was 364 nM.

With `Cc1ccc(NC(=O)c2ccc(C(C)(C)C)s2)cc1Nc1nc2ccccc2n1-c1cc(N)ncn1` [N-(3-(1-(6-aminopyrimidin-4-yl)-1H-benzo[d]imidazol-2-ylamino)-4-methylphenyl)-5-tert-butylthiophene-2-carboxamide], the IC50 amounted to 5 nM in experiment [1], 4 nM in experiment [2], 4 nM in experiment [3] and 4 nM in experiment [4].

As for `Cc1ccc(C(=O)Nc2cccc(C(N)=O)c2)cc1Nc1nc2ccccc2n1-c1cc(N)ncn1` [3-(1-(6-aminopyrimidin-4-yl)-1H-benzo[d]imidazol-2-ylamino)-N-(3-carbamoylphenyl)-4-methylbenzamide], the IC50 in experiment [1], in experiment [2], in experiment [3] and in experiment [4] was greater than 10000 nM in each case.

Turning to `Cc1ccc(C(=O)Nc2cccc(Br)c2)cc1Nc1nc2ccccc2n1-c1cc(N)ncn1` [3-(1-(6-aminopyrimidin-4-yl)-1H-benzo[d]imidazol-2-ylamino)-N-(3-bromophenyl)-4-methylbenzamide], the 50% inhibitory concentration (IC50) in experiment [1] was 272 nM; in experiment [2], 52 nM; in experiment [3], 464 nM; in experiment [4], 5380 nM.

Consider `Cc1ccc(NC(=O)c2cccc(C(F)(F)F)c2)cc1Nc1nc2ccccc2n1-c1cc(NCCCCN(C)C)ncn1` [N-(3-(1-(6-(4-(dimethylamino)butylamino)pyrimidin-4-yl)-1H-benzo[d]imidazol-2-ylamino)-4-methylphenyl)-3-(trifluoromethyl)benzamide], for which the IC50 in experiment [1] was 399 nM; in experiment [2], 108 nM; in experiment [3], 1360 nM; in experiment [4], 1210 nM.
